Results as given in patent US20220296659A1, “PHARMACEUTICAL COMPOSITION FOR TREATMENT OF TUMOR OR CANCER, AND APPLICATION THEREOF” (FANTASIA BIOPHARMA (ZHEJIANG) CO. LTD, priority 2019, published 2022).

Assays:
lung cancer cells = assay type: in vivo, mice; conditions: after completion of the experiment

## O=C(O)c1cc(O)c2c(c1)C(=O)c1cccc(O)c1C2=O [rhein]
Lung cancer cells
  overall inhibition ratio (lung metastasis): 15.8%
Different doses, under the experimental conditions
  toxic damage to the tumor-bearing mice: did not cause toxic damage
mouse, in vivo
  influence on the body temperature of tumor-bearing mice: some fluctuations
